# Measured values taken from US8470820B2, “Nitrogen-containing heteroaryl derivatives” (Hoffman-La Roche Inc., priority 2010, dated 2013).
# pIC50: −log10 of the molar value.
# Assays:
# rats = conditions: sub-chronic treatment with PCP (NMDA receptor hypofunction paradigm); cited from earlier work
# human PDE10A = human PDE10A (Homo sapiens (Human), UniProt Q9Y233); test: human PDE10A full length Scintillation Proximity Assay (SPA); type: biochemical; conditions: 50 nM cGMP and 50 nM [3H]-cGMP, 20 minutes at room temperature, read-out: PDE10A inhibition IC50
# Procedure: The following test was carried out in order to determine the activity of the compounds of the present invention. PDE10 activity of the compounds of the present invention was determined using a Scintillation Proximity Assay (SPA)-based method similar to the one previously described (Fawcett, L. et al., Proc Natl Acad Sci USA (2000) 97(7):3702-3707).
# The human PDE10A full length assay was performed in 96-well micro titer plates. The reaction mixture of 50 μl contained 20 mM HEPES pH=7.5/10 mM MgCl2/0.05 mg/ml BSA (Sigma cat. # A-7906), 50 nM cGMP (Sigma, cat. # G6129) and 50 nM [^3H]-cGMP (GE Healthcare, cat. # TRK392 S.A. 13.2Ci/mmol), 3.75 ng/well PDE10A enzyme (Enzo Life Science, Lausen, Switzerland cat # SE-534) with or without a specific test compound. A range of concentrations of the potential inhibitor was used to generate data for calculating the concentration of inhibitor resulting in 50% of the effect (e.g. IC50, the concentration of the competitor inhibiting PDE10A activity by 50%). Non-specific activity was tested without the enzyme. The reaction was initiated by the addition of the substrate solution (cGMP and [^3H]-cGMP) and allowed to progress for 20 minutes at room temperature. The reaction was terminated by adding 25 μA of YSi-SPA scintillation beads (GE Healthcare, cat. # RPNQ0150) in 18 mM zinc sulphate solution (stop reagent). After 1 h under shaking, the plate was centrifuged one minute at 170 g to allow beads to settle. Afterwards, radioactive counts were measured on a Perkin Elmer TopCount Scintillation plate reader.
# Sequence of human PDE10A (Q9Y233 other isoform, or with tags, fused parts or gaps): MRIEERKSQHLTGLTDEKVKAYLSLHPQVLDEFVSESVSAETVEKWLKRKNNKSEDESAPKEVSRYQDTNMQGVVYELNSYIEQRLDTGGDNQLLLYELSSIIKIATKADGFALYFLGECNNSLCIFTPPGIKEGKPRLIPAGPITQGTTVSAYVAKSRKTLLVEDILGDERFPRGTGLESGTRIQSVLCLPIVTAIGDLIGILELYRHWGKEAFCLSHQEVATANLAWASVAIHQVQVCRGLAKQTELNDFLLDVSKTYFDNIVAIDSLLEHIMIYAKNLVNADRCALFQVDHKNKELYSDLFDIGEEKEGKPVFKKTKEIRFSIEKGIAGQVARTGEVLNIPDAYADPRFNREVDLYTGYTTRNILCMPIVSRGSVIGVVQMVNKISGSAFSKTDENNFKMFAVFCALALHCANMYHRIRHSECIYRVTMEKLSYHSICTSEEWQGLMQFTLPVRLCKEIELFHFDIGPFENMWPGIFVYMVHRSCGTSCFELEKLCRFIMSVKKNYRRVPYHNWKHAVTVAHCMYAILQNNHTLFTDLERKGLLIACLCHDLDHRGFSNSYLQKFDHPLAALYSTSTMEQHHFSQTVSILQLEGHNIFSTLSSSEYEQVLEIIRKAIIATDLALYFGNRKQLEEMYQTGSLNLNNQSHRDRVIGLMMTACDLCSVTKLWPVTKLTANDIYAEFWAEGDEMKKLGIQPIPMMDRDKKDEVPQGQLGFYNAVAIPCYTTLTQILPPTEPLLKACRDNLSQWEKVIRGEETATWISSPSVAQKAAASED
SMILES,effect on deficits in extra-dimensional shift learning (rats),pIC50 (human PDE10A)
"COc1ccc(Cc2nccc3cc(OC)c(OC)cc23)cc1OC [papaverine, Papaverine]",attenuate the deficits in the extra-dimensional shift learning,–
"N#CCCn1nc(-c2ccccn2)cc1NC(=O)c1nc(C2CC2)ccc1Nc1cncnc1 [Example 33, 6-Cyclopropyl-3-(pyrimidin-5-ylamino)-pyridine-2-carboxylic acid [2-(2-cyano-ethyl)-5-pyridin-2-yl-2H-pyrazol-3-yl]-amide]",–,6.77
"Cn1nc(-c2ccccn2)cc1NC(=O)c1nc(C2CC2)cnc1Nc1cncnc1 [Example 21, 6-Cyclopropyl-3-(pyrimidin-5-ylamino)-pyrazine-2-carboxylic acid (2-methyl-5-pyridin-2-yl-2H-pyrazol-3-yl)-amide]",–,8.40
"O=C(Nc1cc(-c2ccccn2)nn1CC1CCCC1)c1nc(C2CC2)ccc1Nc1cncnc1 [Example 31, 6-Cyclopropyl-3-(pyrimidin-5-ylamino)-pyridine-2-carboxylic acid (2-cyclopentylmethyl-5-pyridin-2-yl-2H-pyrazol-3-yl)-amide]",–,9.00
"O=C(Nc1ccn(-c2ccncc2)n1)c1nc(C2CC2)ccc1Nc1cncnc1 [Example 7, 6-Cyclopropyl-3-(pyrimidin-5-ylamino)-pyridine-2-carboxylic acid (1-pyridin-4-yl-1H-pyrazol-3-yl)-amide]",–,8.00
